Measured values as given in US9221832B2, “Heterocyclic amide derivatives as P2X7 receptor antagonists” (ACTELION PHARMACEUTICALS LTD., priority 2011, dated 2015).

Target: human recombinant P2X7 receptor (Homo sapiens (Human), UniProt Q99572)
Assay: YO-PRO assay: P2X7 receptor antagonistic activity
Type: cell-based
Conditions: HEK cells expressing human P2X7

human recombinant P2X7 receptor, sequence (Q99572 whole entry): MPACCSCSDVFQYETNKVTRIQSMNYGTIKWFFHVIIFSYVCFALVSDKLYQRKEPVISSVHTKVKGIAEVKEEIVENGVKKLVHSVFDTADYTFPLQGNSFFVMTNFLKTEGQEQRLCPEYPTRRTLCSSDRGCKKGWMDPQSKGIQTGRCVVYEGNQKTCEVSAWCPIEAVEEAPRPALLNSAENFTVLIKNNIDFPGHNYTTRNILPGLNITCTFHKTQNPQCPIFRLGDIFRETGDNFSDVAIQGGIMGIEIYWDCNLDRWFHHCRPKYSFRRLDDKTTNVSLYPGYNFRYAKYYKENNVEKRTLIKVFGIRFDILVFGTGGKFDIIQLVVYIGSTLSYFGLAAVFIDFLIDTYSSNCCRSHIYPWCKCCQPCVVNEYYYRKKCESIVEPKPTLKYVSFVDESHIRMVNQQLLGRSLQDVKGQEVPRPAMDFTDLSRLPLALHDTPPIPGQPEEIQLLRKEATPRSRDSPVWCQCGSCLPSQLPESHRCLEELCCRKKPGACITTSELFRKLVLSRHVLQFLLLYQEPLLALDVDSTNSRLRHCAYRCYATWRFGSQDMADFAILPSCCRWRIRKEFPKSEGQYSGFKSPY

Row | IC50 [nM] | Compound
1 | > 8630 | O=C(COc1ccc(Cl)c(Cl)c1)NC1COc2ncccc21 (racemic) [Example 141, rac-2-(3,4-Dichloro-phenoxy)-N-(2,3-dihydro-furo[2,3-b]pyridin-3-yl)-acetamide]
2 | > 9950 | Cc1ccc(OCC(=O)NC2COc3ncccc32)c(C)c1 (racemic) [Example 142, rac-N-(2,3-Dihydro-furo[2,3-b]pyridin-3-yl)-2-(2,4-dimethyl-phenoxy)-acetamide]
3 | 65 | O=C(Cc1cccc(C(F)(F)F)c1Cl)NC1COc2nc(Cl)ccc21 (racemic) [Example 143, rac-N-(6-Chloro-2,3-dihydro-furo[2,3-b]pyridin-3-yl)-2-(2-chloro-3-trifluoromethyl-phenyl)-acetamide]
4 | 50 | Cc1cc(Cl)cc(Cl)c1CC(=O)NC1COc2nc(Cl)ccc21 (racemic) [Example 144, rac-N-(6-Chloro-2,3-dihydro-furo[2,3-b]pyridin-3-yl)-2-(2,4-dichloro-6-methyl-phenyl)-acetamide]
5 | 165 | O=C(Cc1cccc(C(F)(F)F)c1Cl)NC1COc2c[n+]([O-])ccc21 (racemic) [Example 148, rac-2-(2-Chloro-3-trifluoromethyl-phenyl)-N-(6-oxy-2,3-dihydro-furo[2,3-c]pyridin-3-yl)-acetamide]
6 | 6690 | Cc1cc(Cl)cc(Cl)c1CC(=O)NC1COc2nccc(C(F)(F)F)c21 (racemic) [Example 151, rac-2-(2,4-Dichloro-6-methyl-phenyl)-N-(4-trifluoromethyl-2,3-dihydro-furo[2,3-b]pyridin-3-yl)-acetamide]
7 | 861 | O=C(Cc1cccc(C(F)(F)F)c1Cl)NC1COc2nccc(C(F)(F)F)c21 (racemic) [Example 152, rac-2-(2-Chloro-3-trifluoromethyl-phenyl)-N-(4-trifluoromethyl-2,3-dihydro-furo[2,3-b]pyridin-3-yl)-acetamide]
8 | 16 | Cc1cc(Cl)cc(Cl)c1CC(=O)NC1COc2ncccc21 (single isomer, unassigned) [Example 6, 2-(2,4-Dichloro-6-methyl-phenyl)-N-(2,3-dihydro-furo[2,3-b]pyridin-3-yl)-acetamide]
9 | 3.5 | Cc1cc(Cl)cc(Cl)c1CC(=O)NC1COc2ncccc21 (single isomer, unassigned) [Example 7, 2-(2,4-Dichloro-6-methyl-phenyl)-N-(2,3-dihydro-furo[2,3-b]pyridin-3-yl)-acetamide]
10 | 29 | Cc1cc(Cl)cc(Cl)c1CC(=O)NC1CCOc2ncccc21 (single isomer, unassigned) [Example 28, 2-(2,4-Dichloro-6-methyl-phenyl)-N-(3,4-dihydro-2H-pyrano[2,3-b]pyridin-4-yl)-acetamide]
11 | 172 | Cc1cc(Cl)cc(Cl)c1CC(=O)NC1CCOc2ncccc21 (single isomer, unassigned) [Example 29, 2-(2,4-Dichloro-6-methyl-phenyl)-N-(3,4-dihydro-2H-pyrano[2,3-b]pyridin-4-yl)-acetamide]
12 | 9.9 | O=C(Cc1cccc(C(F)(F)F)c1Cl)NC1COc2ncccc21 (single isomer, unassigned) [Example 73, 2-(2-Chloro-3-trifluoromethyl-phenyl)-N-(2,3-dihydro-furo[2,3-b]pyridin-3-yl)-acetamide]
13 | 4.7 | O=C(Cc1cccc(C(F)(F)F)c1Cl)NC1COc2ncccc21 (single isomer, unassigned) [Example 74, 2-(2-Chloro-3-trifluoromethyl-phenyl)-N-(2,3-dihydro-furo[2,3-b]pyridin-3-yl)-acetamide]
14 | 9 | CC(C(=O)NC1COc2ncccc21)c1ccc(Cl)cc1Cl (single isomer, unassigned) [Example 92, 2-(2,4-Dichloro-phenyl)-N-2,3-dihydro-furo[2,3-b]pyridin-3-yl-propionamide]
15 | 137 | CC(C(=O)NC1COc2ncccc21)c1ccc(Cl)cc1Cl (single isomer, unassigned) [Example 93, 2-(2,4-Dichloro-phenyl)-N-2,3-dihydro-furo[2,3-b]pyridin-3-yl-propionamide]
16 | 11 | CC(C(=O)NC1COc2ncccc21)c1ccc(Cl)cc1Cl (single isomer, unassigned) [Example 94, 2-(2,4-Dichloro-phenyl)-N-2,3-dihydro-furo[2,3-b]pyridin-3-yl-propionamide]

Row | IC50 [nM] | Compound
17 | 104 | CC(C(=O)NC1COc2ncccc21)c1ccc(Cl)cc1Cl (single isomer, unassigned) [Example 95, 2-(2,4-Dichloro-phenyl)-N-2,3-dihydro-furo[2,3-b]pyridin-3-yl-propionamide]
18 | 29 | N#Cc1cccc(CC(=O)NC2COc3ncccc32)c1Cl (single isomer, unassigned) [Example 98, 2-(2-Chloro-3-cyano-phenyl)-N-2,3-dihydro-furo[2,3-b]pyridin-3-yl-acetamide]
19 | 40 | N#Cc1cccc(CC(=O)NC2COc3ncccc32)c1Cl (single isomer, unassigned) [Example 99, 2-(2-Chloro-3-cyano-phenyl)-N-2,3-dihydro-furo[2,3-b]pyridin-3-yl-acetamide]
20 | 598 | Cc1cc(Cl)cc(Cl)c1CC(=O)NC1COc2cnccc21 (single isomer, unassigned) [Example 101, 2-(2,4-Dichloro-6-methyl-phenyl)-N-2,3-dihydro-furo[2,3-c]pyridin-3-yl-acetamide]
21 | 2.2 | Cc1cc(Cl)cc(Cl)c1CC(=O)NC1COc2cnccc21 (single isomer, unassigned) [Example 102, 2-(2,4-Dichloro-6-methyl-phenyl)-N-2,3-dihydro-furo[2,3-c]pyridin-3-yl-acetamide]
22 | 160 | O=C(NC1COc2ncccc21)C1CCc2cc(Cl)cc(Cl)c21 (single isomer, unassigned) [Example 146, 5,7-dichloro-N-(2,3-dihydrofuro[2,3-b]pyridin-3-yl)-2,3-dihydro-1H-indene-1-carboxamide]
23 | 40 | O=C(NC1COc2ncccc21)C1CCc2cc(Cl)cc(Cl)c21 (single isomer, unassigned) [Example 147, 5,7-dichloro-N-(2,3-dihydrofuro[2,3-b]pyridin-3-yl)-2,3-dihydro-1H-indene-1-carboxamide]
24 | 828 | CC(C(=O)NC1COc2ncccc21)c1ccc(Cl)cc1 (centres unmarked) [Example 23, 2-(4-Chloro-phenyl)-N-(2,3-dihydro-furo[2,3-b]pyridin-3-yl)-propionamide]
25 | 1520 | CC(C(=O)NC1CCOc2ncccc21)c1ccc(Cl)cc1 (centres unmarked) [Example 64, 2-(4-Chloro-phenyl)-N-(3,4-dihydro-2H-pyrano[2,3-b]pyridin-4-yl)-propionamide]
26 | 21 | O=C(NC1COc2ncccc21)C(CO)c1ccc(Cl)cc1Cl (centres unmarked) [Example 79, 2-(2,4-Dichloro-phenyl)-N-2,3-dihydro-furo[2,3-b]pyridin-3-yl-3-hydroxy-propionamide]
27 | 1970 | O=C(NC1COc2ncccc21)C(CN1CCCC1)c1ccc(Cl)cc1Cl (centres unmarked) [Example 81, 2-(2,4-Dichloro-phenyl)-N-2,3-dihydro-furo[2,3-b]pyridin-3-yl-3-pyrrolidin-1-yl-propionamide]
28 | 55 | CCC(C(=O)NC1COc2ncccc21)c1ccc(Cl)cc1Cl (centres unmarked) [Example 84, 2-(2,4-Dichloro-phenyl)-N-2,3-dihydro-furo[2,3-b]pyridin-3-yl-butyramide]
29 | 15 | CC(C(=O)NC1COc2ncccc21)c1ccc(Cl)cc1Cl (centres unmarked) [Example 85, 2-(2,4-Dichloro-phenyl)-N-2,3-dihydro-furo[2,3-b]pyridin-3-yl-propionamide]
30 | 33 | [2H]C([2H])([2H])C(C(=O)NC1COc2ncccc21)c1ccc(Cl)cc1Cl (centres unmarked) [Example 86, 2-(2,4-Dichloro-phenyl)-2-trideuteromethyl-N-2,3-dihydro-furo[2,3-b]pyridin-3-yl-acetamide]
31 | 137 | O=C(NC1COc2ncccc21)C1CCc2cc(Cl)cc(Cl)c21 (centres unmarked) [Example 130, 5,7-dichloro-N-(2,3-dihydrofuro[2,3-b]pyridin-3-yl)-2,3-dihydro-1H-indene-1-carboxamide]
32 | 4690 | O=C(NC1COc2ncccc21)C1Cc2ccc(Cl)cc2C1 (centres unmarked) [Example 149, 5-chloro-N-(2,3-dihydrofuro[2,3-b]pyridin-3-yl)-2,3-dihydro-1H-indene-2-carboxamide]
